How the values were obtained:
p38MAPKγ (MAPK12) = biological target: T1, p38MAPKγ (MAPK12) (Homo sapiens, UniProt P53778); experiment: p38 MAPKγ enzyme inhibition (Z-LYTE FRET); format: biochemical; conditions: Table 2A; read-out: IC50 Values for Enzyme Inhibition p38 MAPKγ
T1 construct: purchased Life Technologies
T1 sequence (P53778 1-367): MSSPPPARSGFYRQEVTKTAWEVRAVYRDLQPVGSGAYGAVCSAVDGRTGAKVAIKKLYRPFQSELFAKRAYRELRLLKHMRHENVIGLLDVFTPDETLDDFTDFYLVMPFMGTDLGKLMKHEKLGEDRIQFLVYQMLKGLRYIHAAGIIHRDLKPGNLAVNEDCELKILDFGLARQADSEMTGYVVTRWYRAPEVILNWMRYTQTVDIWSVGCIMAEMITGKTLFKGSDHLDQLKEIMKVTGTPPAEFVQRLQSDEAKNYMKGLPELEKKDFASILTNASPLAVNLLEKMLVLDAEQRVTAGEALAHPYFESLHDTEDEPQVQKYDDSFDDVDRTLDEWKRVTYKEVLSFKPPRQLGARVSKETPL
Procedure, shortened: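 Z-LYTE read-out: after 1 h protease development, only non-phosphorylated peptide is cleaved, and the donor/acceptor (coumarin/fluorescein) ratio reports phosphorylation. Beforehand, enzyme and compound (stock concentrations 0.0012–40 μg/mL) were preincubated 2 h at RT, then the kinase reaction ran 1 h at RT with peptide and ATP (8 μM and 400 μM stocks).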

Syk = biological target: T2, Syk (Homo sapiens, UniProt P43405); experiment: Syk enzyme inhibition (Z-LYTE FRET); format: biochemical; conditions: Table 2A
T2 construct: purchased Life Technologies
Procedure: The enzyme inhibitory activities of compounds disclosed herein were determined by FRET using synthetic peptides labelled with both donor and acceptor fluorophores (Z-LYTE, Life Technologies, Paisley, UK).
The relevant enzyme (1000 ng/mL, 1400 ng/mL or 2000 ng/mL respectively, 2.5 μL) was incubated with the test compound (either 40 μg/mL, 12 μg/mL, 4 μg/mL, 1.2 μg/mL, 0.4 μg/mL, 0.12 μg/mL, 0.04 μg/mL, 0.012 μg/mL, 0.004 μg/mL or 0.0012 μg/mL, 2.5 μL each) for 2 h at RT. The FRET peptides (8 μM, 2.5 μL), and appropriate ATP solutions (2.5 μL, 800 μM for c-Src, and 60 μM ATP for HCK and Syk) were then added to the enzyme/compound mixtures and incubated for 1 h at RT. Development reagent (protease, 5 μL) was added for 1 h prior to detection in a fluorescence microplate reader (EnVision, Perkin Elmer).
In all cases, the site-specific protease cleaves non-phosphorylated peptide only and eliminates the FRET signal. Phosphorylation levels of each reaction were calculated using the ratio of coumarin emission (donor) over fluorescein emission (acceptor), for which low ratios indicate high phosphorylation and high ratios indicate low phosphorylation levels.

[1] = tested on: TNFα release in d-U937 cells; experiment: LPS-induced TNFα release in d-U937 cells; format: cell-based; conditions: Homo sapiens, dU937; read-out: LPS Induced Release TNFα REC50 (dU937); further: relative to 10 µg/mL BIRB-796
Procedure: U937 cells, a human monocytic cell line, were differentiated into macrophage-type cells by incubation with PMA (100-200 ng/mL) for 48 to 72 h. Cells were pre-incubated with final […] concentrations of test compound for 2 h and were then stimulated with LPS (0.1 μg/mL; from E. coli: O111:B4, Sigma) for 4 h. The supernatant was collected for determination of TNFα and IL-8 concentrations by sandwich ELISA (Duo-set, R&D systems). […] The relative 50% effective concentration (REC50) was determined from the resultant concentration-response curve. The inhibition of IL-8 production was calculated at each concentration of test compound by comparison with vehicle control.

d-U937 cells = experiment: Cell viability: MTT assay in differentiated U937 cells; format: cell-based, human; conditions: 10 μg/mL
Procedure, shortened: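 Differentiated U937 cells exposed to compound at a final 10 μg/mL, either 4 h in 5% FCS RPMI1640 or 24 h in 10% FCS RPMI1640. MTT added for 1 h, formazan dissolved in DMSO, absorbance read at 550 nm; % viability loss relative to 0.5% DMSO vehicle, with increases shown as negative values.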

| Compound | IC50 (p38MAPKγ (MAPK12)) | IC50 (Syk) | EC50 [1] | MTT Assay Cell viability at time point indicated in d-U937 Cells, 4 h (d-U937 cells) | MTT Assay Cell viability at time point indicated in d-U937 Cells, 24 h (d-U937 cells) |
| --- | --- | --- | --- | --- | --- |
| CC(C)(C)c1cc(NC(=O)Nc2ccc(OCc3ccnc(Nc4cncc(C5CC5)n4)c3)c3ccccc23)n(-c2ccc(CO)cc2)n1 [Example 25] | 49 nM | 2220 nM | 1.4 nM | − (−ve and +ve indicate the value is below and above, respectively, the no significant effect threshold defined as 30% inhibition at 10 μg/mL at the time point indicated) | + (−ve and +ve indicate the value is below and above, respectively, the no significant effect threshold defined as 30% inhibition at 10 μg/mL at the time point indicated) |
| Cc1ccc(-n2nc(C(C)(C)C)cc2NC(=O)Nc2ccc(OCc3ccnc(Nc4cncc(C#N)n4)c3)c3ccccc23)cc1 [Example 11] | 682 nM | > 16000 nM | 2.3 nM | − (−ve and +ve indicate the value is below and above, respectively, the no significant effect threshold defined as 30% inhibition at 10 μg/mL at the time point indicated) | − (−ve and +ve indicate the value is below and above, respectively, the no significant effect threshold defined as 30% inhibition at 10 μg/mL at the time point indicated) |
| COCCNC(=O)c1cnc(Nc2cc(COc3ccc(NC(=O)Nc4cc(C(C)(C)C)nn4-c4ccc(C)s4)c4ccccc34)ccn2)cn1 [Example 43] | 394 nM | > 14200 nM | 16.8 nM | − (−ve and +ve indicate the value is below and above, respectively, the no significant effect threshold defined as 30% inhibition at 10 μg/mL at the time point indicated) | − (−ve and +ve indicate the value is below and above, respectively, the no significant effect threshold defined as 30% inhibition at 10 μg/mL at the time point indicated) |
| COc1ccc(-n2nc(C(C)(C)C)cc2NC(=O)Nc2ccc(OCc3ccnc(Nc4cncc(C5CC5)n4)c3)c3ccccc23)cc1 [Example 22] | 377 nM | 6700 nM | 2.1 nM | − (−ve and +ve indicate the value is below and above, respectively, the no significant effect threshold defined as 30% inhibition at 10 μg/mL at the time point indicated) | − (−ve and +ve indicate the value is below and above, respectively, the no significant effect threshold defined as 30% inhibition at 10 μg/mL at the time point indicated) |
| Cc1ccc(-n2nc(C(C)(C)C)cc2NC(=O)Nc2ccc(OCc3ccnc(Nc4cnc(CN)cn4)c3)c3ccccc23)cc1 [Example 5, 1-(4-((2-((5-(Aminomethyl)pyrazin-2-yl)amino)pyridin-4-yl)methoxy)naphthalen-1-yl)-3-(3-(tert-butyl)-1-(p-tolyl)-1H-pyrazol-5-yl)urea] | 16 nM | > 15900 nM | 2.8 nM | − (−ve and +ve indicate the value is below and above, respectively, the no significant effect threshold defined as 30% inhibition at 10 μg/mL at the time point indicated) | + (−ve and +ve indicate the value is below and above, respectively, the no significant effect threshold defined as 30% inhibition at 10 μg/mL at the time point indicated) |
| COCCNC(=O)c1cnc(Nc2cc(COc3ccc(NC(=O)Nc4cc(C(C)(C)C)nn4-c4csc(C)c4)c4ccccc34)ccn2)cn1 [Example 44] | 454 nM | > 14200 nM | 88.2 nM | − (−ve and +ve indicate the value is below and above, respectively, the no significant effect threshold defined as 30% inhibition at 10 μg/mL at the time point indicated) | + (−ve and +ve indicate the value is below and above, respectively, the no significant effect threshold defined as 30% inhibition at 10 μg/mL at the time point indicated) |
| Cc1ccc(-n2nc(C(C)(C)C)cc2NC(=O)Nc2ccc(OCc3ccnc(Nc4cnc(CO)cn4)c3)c3ccccc23)cc1 [Example 10, 1-(3-(tert-Butyl)-1-(p-tolyl)-1H-pyrazol-5-yl)-3-(4-((2-((5-(hydroxymethyl)pyrazin-2-yl)amino)pyridin-4-yl)methoxy)naphthalen-1-yl)urea] | 31 nM | > 15900 nM | 2.8 nM | − (−ve and +ve indicate the value is below and above, respectively, the no significant effect threshold defined as 30% inhibition at 10 μg/mL at the time point indicated) | − (−ve and +ve indicate the value is below and above, respectively, the no significant effect threshold defined as 30% inhibition at 10 μg/mL at the time point indicated) |
| CNC(=O)Cc1cncc(Nc2cc(COc3ccc(NC(=O)Nc4cc(C(C)(C)C)nn4-c4ccc(C)cc4)c4ccccc34)ccn2)n1 [Example 28] | 106 nM | > 14900 nM | 2.7 nM | − (−ve and +ve indicate the value is below and above, respectively, the no significant effect threshold defined as 30% inhibition at 10 μg/mL at the time point indicated) | + (−ve and +ve indicate the value is below and above, respectively, the no significant effect threshold defined as 30% inhibition at 10 μg/mL at the time point indicated) |
| Cc1ccc(-n2nc(C(C)(C)C)cc2NC(=O)Nc2ccc(OCc3ccnc(Nc4cnc(CO)cn4)c3)c3ccccc23)s1 [Example 26] | 74 nM | 1580 nM | 4.5 nM | − (−ve and +ve indicate the value is below and above, respectively, the no significant effect threshold defined as 30% inhibition at 10 μg/mL at the time point indicated) | + (−ve and +ve indicate the value is below and above, respectively, the no significant effect threshold defined as 30% inhibition at 10 μg/mL at the time point indicated) |
| Cc1ccc(-n2nc(C(C)(C)C)cc2NC(=O)Nc2ccc(OCc3ccnc(Nc4cnccn4)c3)c3ccccc23)s1 [Example 13] | 63 nM | > 16500 nM | 18.2 nM | − (−ve and +ve indicate the value is below and above, respectively, the no significant effect threshold defined as 30% inhibition at 10 μg/mL at the time point indicated) | − (−ve and +ve indicate the value is below and above, respectively, the no significant effect threshold defined as 30% inhibition at 10 μg/mL at the time point indicated) |
| Cc1ccc(-n2nc(C(C)(C)C)cc2NC(=O)Nc2ccc(OCc3ccnc(Nc4cncc(C5CC5)n4)c3)c3ccccc23)s1 [Example 24] | 334 nM | 8830 nM | 3.1 nM | − (−ve and +ve indicate the value is below and above, respectively, the no significant effect threshold defined as 30% inhibition at 10 μg/mL at the time point indicated) | − (−ve and +ve indicate the value is below and above, respectively, the no significant effect threshold defined as 30% inhibition at 10 μg/mL at the time point indicated) |

— patent US11142515B2, “Pyrazolyl-ureas as kinase inhibitors” (RESPIVERT LIMITED, priority 2014, dated 2021)
